Experimental data as given in ChEMBL document CHEMBL1201862, “PubChem BioAssay data set” (2004).
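Tested at 5 concentrations; 48 h exposure; 96-well plates; endpoints linearly interpolated, else capped at highest concentration. The concentration for 50% growth inhibition is given as GI50.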 Calls of active or inactive are those of the source. Rule as the data show it: active = GI50 up to about 1.1 µM and inactive = higher.

Key:
Assay in all cases: inhibition of tumour cell growth, NCI panel, 48 h
EKVX = test system: EKVX
M14 = test system: M14
SK-OV-3 = test system: SK-OV-3
HOP-92 = test system: HOP-92
OVCAR-4 = test system: OVCAR-4
OVCAR-3 = test system: OVCAR-3
NCI-H460 = test system: NCI-H460
RPMI-8226 = test system: RPMI-8226
HL-60 = test system: HL-60
COLO 205 = test system: COLO 205
SNB-78 = test system: SNB-78
UACC-62 = test system: UACC-62
K562 = test system: K562
LOX IMVI = test system: LOX IMVI
HOP-62 = test system: HOP-62
HCT-15 = test system: HCT-15
MDA-MB-435 = test system: MDA-MB-435
SF-295 = test system: SF-295
DU-145 = test system: DU-145
TK-10 = test system: TK-10
NCI/ADR-RES = test system: NCI/ADR-RES
SK-MEL-2 = test system: SK-MEL-2
HCT-116 = test system: HCT-116
OVCAR-8 = test system: OVCAR-8
786-0 = test system: 786-0
SW-620 = test system: SW-620
SR = test system: SR
NCI-H23 = test system: NCI-H23
HT-29 = test system: HT-29
SF-268 = test system: SF-268
PC-3 = test system: PC-3
M19-MEL = test system: M19-MEL
A498 = test system: A498
SF-539 = test system: SF-539
ACHN = test system: ACHN
SN12C = test system: SN12C
NCI-H522 = test system: NCI-H522
KM12 = test system: KM12
NCI-H226 = test system: NCI-H226
U-251 = test system: U-251
CAKI-1 = test system: CAKI-1
BT-549 = test system: BT-549
IGROV-1 = test system: IGROV-1
SK-MEL-28 = test system: SK-MEL-28
CCRF-CEM = test system: CCRF-CEM
DLD-1 = test system: DLD-1
UACC-257 = test system: UACC-257
MDA-N = test system: MDA-N
SNB-19 = test system: SNB-19
SK-MEL-5 = test system: SK-MEL-5
A549 = test system: A549
MDA-MB-231 = test system: MDA-MB-231
DMS-273 = test system: DMS-273
Hs-578T = test system: Hs-578T
HCC 2998 = test system: HCC 2998
RXF 393 = test system: RXF 393
T47D = test system: T47D
XF498 = test system: XF498
KM-20L2 = test system: KM-20L2
SNB-75 = test system: SNB-75
Malme-3M = test system: Malme-3M
MOLT-4 = test system: MOLT-4
UO-31 = test system: UO-31
OVCAR-5 = test system: OVCAR-5
MCF7 = test system: MCF7
HOP-18 = test system: HOP-18
DMS-114 = test system: DMS-114

Measured: GI50

O=C1/C(=C/c2ccc(O)c(O)c2)CCC/C1=C\c1ccc(O)c(O)c1
inactive: EKVX 14.3 µM | M14 4.8 µM | SK-OV-3 7.96 µM | HOP-92 2.98 µM | OVCAR-4 5.38 µM | OVCAR-3 3.06 µM | NCI-H460 3.45 µM | RPMI-8226 2.48 µM | HL-60 3.24 µM | COLO 205 7.03 µM | SNB-78 2.11 µM | UACC-62 2.86 µM | K562 3.71 µM | LOX IMVI 2.11 µM | HOP-62 4.13 µM | MDA-MB-435 2.91 µM | SF-295 8.07 µM | DU-145 4.5 µM | TK-10 3.79 µM | NCI/ADR-RES 4.13 µM | SK-MEL-2 3.42 µM | HCT-116 2.37 µM | OVCAR-8 2.07 µM | 786-0 3.31 µM | SW-620 2.45 µM | SR 1.58 µM | NCI-H23 2.76 µM | HT-29 8.09 µM | SF-268 3.02 µM | PC-3 3.98 µM | M19-MEL 3.43 µM | A498 7.64 µM | SF-539 2.41 µM | ACHN 2.69 µM | SN12C 4.41 µM | KM12 3.95 µM | NCI-H226 5.6 µM | U-251 2.92 µM | CAKI-1 3.68 µM | BT-549 4.74 µM | IGROV-1 4.05 µM | SK-MEL-28 3.94 µM | CCRF-CEM 1.52 µM | DLD-1 2.68 µM | UACC-257 4.51 µM | MDA-N 3.13 µM | SNB-19 7.08 µM | SK-MEL-5 1.67 µM | A549 7.41 µM | MDA-MB-231 5.14 µM | DMS-273 2.06 µM | Hs-578T 3.18 µM | HCC 2998 4.12 µM | RXF 393 2.62 µM | T47D 3.87 µM | XF498 3.13 µM | KM-20L2 11.6 µM | SNB-75 3.4 µM | Malme-3M 2.46 µM | MOLT-4 2.42 µM | UO-31 2 µM | OVCAR-5 14 µM | MCF7 5.16 µM | HOP-18 2.81 µM
active: NCI-H522 0.729 µM
4.13 µM: HCT-15

COC1(OC)CC2C(=O)N(Cc3ccccc3)C1CC2S(=O)(=O)c1ccccc1 (stereo not drawn)
> 100 µM: HCT-15
inactive: EKVX > 100 µM | M14 > 100 µM | SK-OV-3 > 100 µM | OVCAR-3 > 100 µM | NCI-H460 > 100 µM | RPMI-8226 > 100 µM | HL-60 > 100 µM | COLO 205 > 100 µM | UACC-62 > 100 µM | K562 > 100 µM | LOX IMVI > 100 µM | HOP-62 > 100 µM | SF-295 > 100 µM | TK-10 > 100 µM | SK-MEL-2 > 100 µM | HCT-116 > 100 µM | OVCAR-8 > 100 µM | 786-0 > 100 µM | SW-620 > 100 µM | NCI-H23 > 100 µM | HT-29 > 100 µM | M19-MEL > 100 µM | SF-539 > 100 µM | ACHN > 100 µM | SN12C > 100 µM | NCI-H522 > 100 µM | KM12 > 100 µM | NCI-H226 > 100 µM | U-251 > 100 µM | IGROV-1 > 100 µM | SK-MEL-28 > 100 µM | CCRF-CEM > 100 µM | DLD-1 > 100 µM | UACC-257 > 100 µM | SNB-19 > 100 µM | SK-MEL-5 > 100 µM | A549 > 100 µM | DMS-273 > 100 µM | DMS-114 > 100 µM | RXF 393 > 100 µM | XF498 33.4 µM | SNB-75 > 100 µM | Malme-3M > 100 µM | MOLT-4 > 100 µM | UO-31 62.1 µM | HOP-18 > 100 µM
